Laboratory results from PMC8386128, “Evaluation of Short-Chain Antimicrobial Peptides With Combined Antimicrobial and Anti-inflammatory Bioactivities for the Treatment of Zoonotic Skin Pathogens From Canines” (Frontiers in Microbiology, 2021).
Where a name gives a salt, the structure may show the parent alone. Read-outs that look alike come from different tables or passages of the source. No end group written: not given here.

Tests used:
[1] = system: Staphylococcus cohnii MW767053; details: peptide constant at 1/4 × MIC, 1 × 10^5 CFU/ml, triplicate
[2] = system: S. pseudintermedius MW767056; test: Calcein leakage analysis (membrane permeabilization); type: cell-based, Staphylococcus pseudintermedius; details: 10× MIC, up to 1 h, triplicate, two independent experiments
TNF-α = test: Western blotting of TNF-α in infected mouse skin; type: in vivo, BALB/c mice; details: day 1, vs saline-treated group, normalized to β-actin, n = 3
Experimental: To examine the expression of IL-6 and TNF-α at the protein level, immunoblotting was performed as reported previously ([Tang et al., 2017]). Proteins from dorsal skin tissues were extracted for Western blotting assays. Primary antibodies included anti-IL-6 (1:1,000, Abcam, Waltham, MA, United States) and anti-TNF-α (1:1,000, Abcam, United States). To verify equal sample loading, the membrane was incubated with rabbit polyclonal anti-β-actin antibody (1:1,000, Abcam, United States) as an internal control. Horseradish peroxidase-conjugated goat anti-rabbit IgG (1:5000, Abcam, United States) was used as the secondary antibody. The membranes were exposed under a chemiluminescent imaging analysis system (GE Healthcare Life Science, Danderyd, Sweden). Samples not treated with primary antibodies were considered negative controls. Relative levels of each protein were normalized to those of β-actin in each sample.

[3] = system: S. pseudintermedius MW767056 skin infection; test: Mouse skin infection (abrasion) model; details: topical 50 μl at 6× MIC daily, n = 5; for bacterial counts of infected skin tissue: inoculum 5 × 10^6 CFU, mean
[4] = system: Staphylococcus pseudintermedius MW767056; details: peptide constant at 1/4 × MIC, 1 × 10^5 CFU/ml, triplicate
[5] = system: S. pseudintermedius MW767056; test: Bacteriolysis analysis (culture turbidity at 600 nm); type: cell-based, Staphylococcus pseudintermedius; details: 4× MIC
[6] = system: Microsporum canis MW768151; details: peptide constant at 1/4 × MIC, 1 × 10^5 CFU/ml, triplicate
[7] = system: Staphylococcus sciuri MW767055
[8] = system: Trichophyton mentagrophytes MW766984; details: 24 h
[9] = system: S. pseudintermedius MW767056 biofilm; details: for MBIC: 24 h; for MBEC: 48 h
[10] = system: S. cohnii MW767053 biofilm; details: for MBIC: 24 h; for MBEC: 48 h
[11] = system: Staphylococcus haemolyticus MW767051
[12] = system: Staphylococcus cohnii MW767053
[13] = system: Staphylococcus simulans MW767052
[14] = system: M. canis MW768151 biofilm; details: for MBIC: 24 h; for MBEC: 48 h
[15] = system: Proteus mirabilis MW767054; details: MW767054, 24 h
[16] = system: Microsporum gypseum MW766983; details: 24 h
[17] = system: sheep and mouse erythrocytes; test: Hemolysis assay; details: 4% erythrocyte suspension, 2 h, 37°C, absorption at 550 nm, triplicate
Experimental: The hemolysis assay was carried out by inoculating mammalian erythrocytes obtained from fresh defibrinated sheep and mouse blood (Thermo Fisher Scientific, Waltham, MA, United States) with the peptides. Briefly, peptides were incubated at 37°C with a 4% erythrocyte suspension with a twofold serial dilution series of peptides ranging from 512 to 1 μg/ml for 2 h. PBS and 1% nonionic detergent Triton X-100^TM (Sigma-Aldrich, St. Louis, MO, United States) diluted in PBS served as negative and positive controls, respectively. Cytolysis was evaluated by the measurement of absorption using a microplate reader at 550 nm. Experiments were done in triplicate. The hemolysis is derived from the following calculation:
Haemolysis%=A-APBS/ATriton-APBS×100%.
A represents the absorbance of samples treated with peptide, while APBS and ATriton indicate the absorbance of the negative and positive controls, respectively.

S. cohnii MW767053 = details: peptide incubated in 25% FBS in RPMI-1640, 37°C, 4 h, then MIC at 1 × 10^5 CFU/ml; three replicates, two independent experiments
[18] = system: S. pseudintermedius MW767056; details: three replicates, two independent experiments
[19] = system: Staphylococcus pseudintermedius clinical isolates; details: triplicate; for MBC/MFC: 10 μl plated on MH plate, no colonies; for MIC: broth microdilution, MHB, 1 × 10^5 CFU/ml, 24 h, 37°C
[20] = in combination with Allomyrinasin

## CC1(C)S[C@@H]2[C@H](NC(=O)[C@H](N)c3ccc(O)cc3)C(=O)N2[C@H]1C(=O)O [Amoxicillin, amoxicillin]
[1]; [20]
  FIC index: 0.3125
[1]; in combination with Andricin B
  FIC index: 0.50
[2]
  calcein leakage (decrease in fluorescence intensity): no obvious disruptive reaction
TNF-α
  expression level of TNF-α protein in infected skin: decreased
[3]; day 1
  bacterial counts of infected skin tissue: 5.94 log10 CFU/g
  bacterial load in the liver: No bacterial load was detected
[3]; day 3
  bacterial counts of infected skin tissue: 3.58 log10 CFU/g
  S. pseudintermedius infection in the liver: completely prevented
[4]; [20]
  FIC index: 0.281
[4]; in combination with Andricin B
  FIC index: indifferent interaction
[5]; result in words
  variation in culture turbidity (OD600) over 10 h: not recorded

## CN(C/C=C/C#CC(C)(C)C)Cc1cccc2ccccc12 [Terbinafine, terbinafine hydrochloride]
[6]; [20]
  FIC index: 0.375
[6]; in combination with Andricin B
  FIC index: 0.50

## AAVTRRILCWFA-NH2 [Allomyrinasin]
[7]; 24 h
  MBC/MFC: >256 mg/L
  MIC: >256 mg/L
[8]
  MBC/MFC: 2 mg/L
  MIC: 2 mg/L
[9]
  MBIC: 32 µg/mL
  MBEC: 128 µg/mL
[10]
  MBIC: 128 µg/mL
  MBEC: 256 µg/mL
[11]; 24 h
  MBC/MFC: >256 mg/L
  MIC: >256 mg/L
[12]; 24 h
  MBC/MFC: 32 mg/L
  MIC: 32 mg/L
[13]; 24 h
  MBC/MFC: 128 mg/L
  MIC: 128 mg/L
[14]
  MBIC: 2 µg/mL
  MBEC: 8 µg/mL
[15]
  MBC/MFC: >256 mg/L
  MIC: >256 mg/L
[16]
  MBC/MFC: 0.5 mg/L
  MIC: 0.5 mg/L

## GLLSGILGAGKKIVF [Nigrocin-HLM]
[15]
  MBC/MFC: 64 mg/L
[16]
  MBC/MFC: 1 mg/L

## GLTRLFSVIK [Andricin B]
[7]; strain MW767055, MBC, 10 μl plated on MH plate, no colonies, triplicate
  MBC/MFC: >256 mg/L
[7]; strain MW767055, broth microdilution, MHB, 1 × 10^5 CFU/ml, 24 h, 37°C, triplicate
  MIC: >256 mg/L
[1]; [20]
  FIC index: 0.50
[8]
  MBC/MFC: 1 mg/L
  MIC: 1 mg/L
[9]
  MBIC: 128 µg/mL
  MBEC: 256 µg/mL
[17]; 1 to 64 μg/ml
  hemolytic activity at lower concentrations: little or no obvious hemolytic activity
[17]; >64 μg/ml
  hemolytic activity at high concentrations: slight hemolytic activity
[10]
  MBIC: 256 µg/mL
  MBEC: >256 µg/mL
[11]; strain MW767051, MBC, 10 μl plated on MH plate, no colonies, triplicate
  MBC/MFC: >256 mg/L
[11]; strain MW767051, broth microdilution, MHB, 1 × 10^5 CFU/ml, 24 h, 37°C, triplicate
  MIC: >256 mg/L
S. cohnii MW767053
  MIC after serum treatment: 256 mg/L
[12]; strain MW767053, MBC, 10 μl plated on MH plate, no colonies, triplicate
  MBC/MFC: 64 mg/L
[13]; strain MW767052, MBC, 10 μl plated on MH plate, no colonies, triplicate
  MBC/MFC: 256 mg/L
[13]; strain MW767052, broth microdilution, MHB, 1 × 10^5 CFU/ml, 24 h, 37°C, triplicate
  MIC: 256 mg/L
[4]; [20]
  FIC index: 0.3125
[18]; 1 × 10^5 CFU/ml
  MIC without serum treatment: 32 mg/L
[18]; peptide incubated in 25% FBS in RPMI-1640, 37°C, 4 h, then MIC at 1 × 10^5 CFU/ml
  MIC after serum treatment: 64 mg/L
[14]
  MBIC: 4 µg/mL
  MBEC: 16 µg/mL
[15]
  MBC/MFC: >256 mg/L
  MIC: >256 mg/L
[16]
  MBC/MFC: 2 mg/L
  MIC: 2 mg/L
[19]; strain MW767046
  MBC/MFC: 32 mg/L
  MIC: 32 mg/L
[19]; strain MW767056
  MBC/MFC: 32 mg/L
  MIC: 32 mg/L
[19]; strain MW793383
  MBC/MFC: 32 mg/L
  MIC: 32 mg/L
[19]; strain MW793384
  MBC/MFC: 128 mg/L
  MIC: 128 mg/L
[19]; strain MW793385
  MBC/MFC: 64 mg/L
  MIC: 64 mg/L
[19]; strain MW793386
  MBC/MFC: 64 mg/L
  MIC: 64 mg/L
[19]; strain MW793387
  MBC/MFC: 128 mg/L
  MIC: 128 mg/L
[19]; strain MW793388
  MBC/MFC: 64 mg/L
  MIC: 64 mg/L
[19]; strain MW793389
  MBC/MFC: 128 mg/L
  MIC: 128 mg/L
[19]; strain MW793390
  MBC/MFC: 128 mg/L
  MIC: 128 mg/L
[19]; strain MW793391
  MBC/MFC: 32 mg/L
  MIC: 32 mg/L
[19]; strain MW793392
  MBC/MFC: 64 mg/L
  MIC: 64 mg/L

## ITSISLCTPGCKTGALMGCNMKTATCHCSIHVSK [Nisin, well-known membrane-perturbing peptide, positive control]
[2]
  calcein leakage (decrease in fluorescence intensity): at least 95%
[5]; after 2.5 h, MHB, triplicate
  decrease in absorbance (turbidity, OD600): > 60%

## KWAVRIIRKFIKGFIS [Hs02]
[7]; 24 h
  MBC/MFC: >256 mg/L
  MIC: >256 mg/L
[8]
  MBC/MFC: 1 mg/L
  MIC: 1 mg/L
[11]; 24 h
  MBC/MFC: 128 mg/L
  MIC: 128 mg/L
[12]; 24 h
  MBC/MFC: 32 mg/L
  MIC: 32 mg/L
[13]; 24 h
  MBC/MFC: 64 mg/L
  MIC: 64 mg/L
[15]
  MBC/MFC: 128 mg/L
  MIC: 128 mg/L
[16]
  MBC/MFC: 0.5 mg/L
  MIC: 0.5 mg/L

## VAEARQGSFSY [Pinipesin]
[7]; 24 h
  MBC/MFC: >256 mg/L
  MIC: >256 mg/L
[8]
  MBC/MFC: 0.5 mg/L
  MIC: 0.5 mg/L
[9]
  MBIC: >256 µg/mL
  MBEC: >256 µg/mL
[10]
  MBIC: >256 µg/mL
  MBEC: >256 µg/mL
[11]; 24 h
  MBC/MFC: >256 mg/L
  MIC: >256 mg/L
[12]; 24 h
  MBC/MFC: >256 mg/L
  MIC: >256 mg/L
[13]; 24 h
  MBC/MFC: 128 mg/L
  MIC: 128 mg/L
[14]
  MBIC: 4 µg/mL
  MBEC: 16 µg/mL
[15]
  MBC/MFC: >256 mg/L
  MIC: >256 mg/L
[16]
  MBC/MFC: 2 mg/L
  MIC: 2 mg/L
